# In the NIST ThermoML archive (doi:10.1021/je049777o):
# Where “and” joins values, the source holds several entries; their conditions need not be identical. Equal entries are not always repeated. Numbers after ± are expanded uncertainties.
# Tests used:
# [1] = 101.3 kPa, Liquid
# [2] = xn = mol fraction of the nth substance listed; details: 101.3 kPa, Liquid
smiles,measurement,setting,value
Clc1ccccc1 [chlorobenzene],mass density,[1]; 293.15 K,1106.74 ± 0.4 kg/m3
same,viscosity,[1]; 293.15 K,0.8084 ± 0.021 mPa·s
same,mass density,[1]; 298.15 K,1101.33 ± 0.4 kg/m3
same,viscosity,[1]; 298.15 K,0.7422 ± 0.019 mPa·s
same,mass density,[1]; 303.15 K,1095.96 ± 0.39 kg/m3
same,viscosity,[1]; 303.15 K,0.7053 ± 0.018 mPa·s
same,mass density,[1]; 313.15 K,1085.06 ± 0.38 kg/m3
same,viscosity,[1]; 313.15 K,0.631 ± 0.017 mPa·s
same,mass density,[1]; 323.15 K,1074.26 ± 0.36 kg/m3
same,viscosity,[1]; 323.15 K,0.5677 ± 0.015 mPa·s
same,mass density,[1]; 333.15 K,1063.32 ± 0.35 kg/m3
same,viscosity,[1]; 333.15 K,0.5069 ± 0.014 mPa·s
same,mass density,[1]; 343.15 K,1052.44 ± 0.34 kg/m3
same,viscosity,[1]; 343.15 K,0.4658 ± 0.013 mPa·s
COC(=O)OC [dimethyl carbonate],mass density,[1]; 293.15 K,1069.54 ± 0.24 kg/m3
same,viscosity,[1]; 293.15 K,0.6163 ± 0.016 mPa·s and 0.6173 ± 0.0096 mPa·s
same,mass density,[1]; 298.15 K,1062.95 ± 0.23 kg/m3
same,viscosity,[1]; 298.15 K,0.5771 ± 0.016 mPa·s and 0.5734 ± 0.0093 mPa·s
same,mass density,[1]; 303.15 K,1056.35 ± 0.23 kg/m3
same,viscosity,[1]; 303.15 K,0.5433 ± 0.015 mPa·s and 0.5403 ± 0.009 mPa·s
same,mass density,[1]; 313.15 K,1043.01 ± 0.21 kg/m3
same,viscosity,[1]; 313.15 K,0.482 ± 0.014 mPa·s and 0.4807 ± 0.0086 mPa·s
same,mass density,[1]; 323.15 K,1029.59 ± 0.19 kg/m3
same,viscosity,[1]; 323.15 K,0.4319 ± 0.013 mPa·s and 0.427 ± 0.0082 mPa·s
same,mass density,[1]; 333.15 K,1016 ± 0.18 kg/m3
same,viscosity,[1]; 333.15 K,0.3893 ± 0.012 mPa·s
same,mass density,[1]; 343.15 K,1002.32 ± 0.16 kg/m3
same,viscosity,[1]; 343.15 K,0.3527 ± 0.011 mPa·s
COC(=O)OC [dimethyl carbonate] + Clc1ccccc1,mass density,"[2]; 293.15 K, x1 = 1",1069.54 ± 0.24 kg/m3
same,viscosity,"[2]; 293.15 K, x1 = 1",0.6163 ± 0.016 mPa·s
same,mass density,"[2]; 298.15 K, x1 = 1",1062.95 ± 0.23 kg/m3
same,viscosity,"[2]; 298.15 K, x1 = 1",0.5771 ± 0.016 mPa·s
same,mass density,"[2]; 303.15 K, x1 = 1",1056.35 ± 0.23 kg/m3
same,viscosity,"[2]; 303.15 K, x1 = 1",0.5433 ± 0.015 mPa·s
same,mass density,"[2]; 313.15 K, x1 = 1",1043.01 ± 0.21 kg/m3
same,viscosity,"[2]; 313.15 K, x1 = 1",0.482 ± 0.014 mPa·s
same,mass density,"[2]; 323.15 K, x1 = 1",1029.59 ± 0.19 kg/m3
same,viscosity,"[2]; 323.15 K, x1 = 1",0.4319 ± 0.013 mPa·s
same,mass density,"[2]; 333.15 K, x1 = 1",1016 ± 0.18 kg/m3
same,viscosity,"[2]; 333.15 K, x1 = 1",0.3893 ± 0.012 mPa·s
same,mass density,"[2]; 343.15 K, x1 = 1",1002.32 ± 0.16 kg/m3
same,viscosity,"[2]; 343.15 K, x1 = 1",0.3527 ± 0.011 mPa·s
CCCCCCC [heptane],mass density,[1]; 293.15 K,687.14 ± 0.71 kg/m3
same,viscosity,[1]; 293.15 K,0.4038 ± 0.0083 mPa·s
same,mass density,[1]; 298.15 K,682.91 ± 0.71 kg/m3
same,viscosity,[1]; 298.15 K,0.3831 ± 0.0082 mPa·s
same,mass density,[1]; 303.15 K,678.61 ± 0.71 kg/m3
same,viscosity,[1]; 303.15 K,0.3629 ± 0.008 mPa·s
same,mass density,[1]; 313.15 K,669.91 ± 0.72 kg/m3
same,viscosity,[1]; 313.15 K,0.3274 ± 0.0078 mPa·s
same,mass density,[1]; 323.15 K,661.16 ± 0.73 kg/m3
same,viscosity,[1]; 323.15 K,0.298 ± 0.0076 mPa·s
same,mass density,[1]; 333.15 K,652.26 ± 0.75 kg/m3
same,viscosity,[1]; 333.15 K,0.2704 ± 0.0074 mPa·s
same,mass density,[1]; 343.15 K,643.31 ± 0.76 kg/m3
same,viscosity,[1]; 343.15 K,0.2487 ± 0.0072 mPa·s
CCCCCCC [heptane] + COC(=O)OC,mass density,"[2]; 293.15 K, x2 = 0",687.14 ± 0.71 kg/m3
same,viscosity,"[2]; 293.15 K, x2 = 0",0.4038 ± 0.0083 mPa·s
same,mass density,"[2]; 298.15 K, x2 = 0",682.91 ± 0.71 kg/m3
same,viscosity,"[2]; 298.15 K, x2 = 0",0.3831 ± 0.0082 mPa·s
same,mass density,"[2]; 303.15 K, x2 = 0",678.61 ± 0.71 kg/m3
same,viscosity,"[2]; 303.15 K, x2 = 0",0.3629 ± 0.008 mPa·s
same,mass density,"[2]; 313.15 K, x2 = 0",669.91 ± 0.72 kg/m3
same,viscosity,"[2]; 313.15 K, x2 = 0",0.3274 ± 0.0078 mPa·s
same,mass density,"[2]; 323.15 K, x2 = 0",661.16 ± 0.73 kg/m3
same,viscosity,"[2]; 323.15 K, x2 = 0",0.298 ± 0.0076 mPa·s
same,mass density,"[2]; 333.15 K, x2 = 0",652.26 ± 0.75 kg/m3
same,viscosity,"[2]; 333.15 K, x2 = 0",0.2704 ± 0.0074 mPa·s
same,mass density,"[2]; 343.15 K, x2 = 0",643.31 ± 0.76 kg/m3
same,viscosity,"[2]; 343.15 K, x2 = 0",0.2487 ± 0.0072 mPa·s
CCCCCC [hexane],mass density,[1]; 293.15 K,662 ± 0.67 kg/m3
same,viscosity,[1]; 293.15 K,0.302 ± 0.0075 mPa·s
same,mass density,[1]; 298.15 K,657.44 ± 0.68 kg/m3
same,viscosity,[1]; 298.15 K,0.2886 ± 0.0074 mPa·s
same,mass density,[1]; 303.15 K,652.87 ± 0.69 kg/m3
same,viscosity,[1]; 303.15 K,0.2774 ± 0.0073 mPa·s
same,mass density,[1]; 313.15 K,643.55 ± 0.7 kg/m3
same,viscosity,[1]; 313.15 K,0.2504 ± 0.0072 mPa·s
same,mass density,[1]; 323.15 K,634.07 ± 0.71 kg/m3
same,viscosity,[1]; 323.15 K,0.2339 ± 0.0071 mPa·s
same,mass density,[1]; 333.15 K,624.39 ± 0.73 kg/m3
same,viscosity,[1]; 333.15 K,0.2114 ± 0.007 mPa·s
CCCCCC [hexane] + COC(=O)OC,mass density,"[2]; 293.15 K, x2 = 0",662 ± 0.67 kg/m3
same,viscosity,"[2]; 293.15 K, x2 = 0",0.302 ± 0.0075 mPa·s
same,mass density,"[2]; 298.15 K, x2 = 0",657.44 ± 0.68 kg/m3
same,viscosity,"[2]; 298.15 K, x2 = 0",0.2886 ± 0.0074 mPa·s
same,mass density,"[2]; 303.15 K, x2 = 0",652.87 ± 0.69 kg/m3
same,viscosity,"[2]; 303.15 K, x2 = 0",0.2774 ± 0.0073 mPa·s
same,mass density,"[2]; 313.15 K, x2 = 0",643.55 ± 0.7 kg/m3
same,viscosity,"[2]; 313.15 K, x2 = 0",0.2504 ± 0.0072 mPa·s
same,mass density,"[2]; 323.15 K, x2 = 0",634.07 ± 0.71 kg/m3
same,viscosity,"[2]; 323.15 K, x2 = 0",0.2339 ± 0.0071 mPa·s
same,mass density,"[2]; 333.15 K, x2 = 0",624.39 ± 0.73 kg/m3
same,viscosity,"[2]; 333.15 K, x2 = 0",0.2114 ± 0.007 mPa·s
